The values below come from patent US7608716B2, “Pyrazolonaphthyridine derivative” (Aska Pharmaceutical Co., Ltd., priority 2002, dated 2009).

A word on the IC50: it is the concentration needed to halve the response being measured.

Data set [1] concerns lung eosinophil infiltration. The data set can be described thus: Inhibition of lung eosinophil infiltration (OVA-sensitized, BALF). The format is in vivo, Hartley guinea-pigs. Conditions: Cavia porcellus, guinea-pigs, oral, 1 hour before OVA inhalation, BALF eosinophils at 24 hours, read-out: Inhibition of Lung Eosinophil Infiltration ED50: mg/kg orally. The protocol:
Hartley guinea-pigs were sensitized by inhaling twice 1% ovalbumin (OVA) in a physiological saline for 10 minutes with a nebulizer (Atom Medical Corporation, Japan) at an interval of 1 week. The animals were orally given a suspension of test compounds at a dose of 0.03 to 3 mg/2 mL/kg one week after the final sensitization. One hour later, the animals were exposed to antigens by inhalation of 2% OVA in a physiological saline for 5 minutes with a nebulizer. Thirty minutes before the antigen challenge, the animals were intraperitoneally pretreated with pyrilamine at a dose of 10 mg/kg to avoid fatality due to anaphylactic shock. Bronchoalveolar lavage fluid (BALF) samples were collected 24 hours after the exposure by inhalation of antigens, and eosinophils were counted.

Data set [2] has as its system rats. Description: Toxicology study (2-weeks administration to rats). Type of data set: in vivo. Conditions: oral, 1, 5, or 25 mg/5 ml/kg. The method, then: Each compound of the present invention (Example Nos. 9 and 33) was administered orally to rats (6 animals per group) as a test compound. […] The test compound was suspended in 0.5% CMC-Na solution and given orally to the animal at a dose of 1, 5, or 25 mg/5 ml/kg in a forced manner.

Data set [3] deals with TNF-α production. The data set can be described thus: Inhibition of TNF-α production in galactosamine- and LPS-stimulation. The format is in vivo. Conditions: Mus musculus; C3H/HeN mice, oral, 1 hour before galactosamine/LPS i.v.; serum TNF-α by ELISA 1 hour later; read-out: Inhibition of TNF-α production ED50: mg/kg orally. The method, then: A suspension of each test compound in 0.5% CMC-Na solution was administered orally to C3H/HeN mice at a dose of 0.10 to 10 mg/kg. One hour later, the animals received intravenously galactosamine at a dose of 800 mg/kg and LPS at a dose 5 μg/kg to raise the induction of TNF-α production. One hour later after the galactosamine- and LPS-administration, amounts of TNF-α in serum samples were measured by ELISA, and ED50 was obtained. Roflumilast and SB207499 were used for the reference compounds in this assay.

Data set [4] has as its system Beagle dogs. The data set can be described thus: Emetic action on dogs. Type of data set: in vivo. Conditions: oral, 1 mg/kg. The method, then: Beagle dogs received a suspension of each test compound in 0.5% CMC-Na solution orally at a dose of 1 mg/2 mL/kg.
In data set [5] the target is T1, CYP2D6 (Homo sapiens, UniProt P10635).
T1 construct: purchased BD Biosciences, NJ, USA; host or cells: CYP2D6-expressing system microsomes
The data set can be described thus: Inhibition of drug-metabolizing enzyme CYP2D6 (CYP2D6/AMMC kit). Type of data set: in vitro ADME. Conditions: CYP2D6-expressing microsomes, AMMC substrate, 37° C., 30 minutes; read-out: Inhibition of Drug-Metabolizing Enzymes (IC50; μM) CYP2D6. The protocol: (§1) The inhibitory effect on CYP2D6 and CYP3A4 was determined using High Throughput Inhibitor Screening Kits: CYP2D6/AMMC and CYP3A4/BFC (both from BD Biosciences, NJ, USA). Briefly, each of NADPH regenerating systems, cofactors, and test compounds was dispensed into 96-well plates, followed by addition of each of fluorescent substrates, AMMC (CYP2D6) or BFC (CYP3A4). To each well were added CYP2D6-expressing system microsomes or CYP3A4-expressing system microsomes, and the plates were incubated at 37° C. for 30 minutes, and then read for fluorescent signals (CYP2D6: ex=390 nm, em=460 nm; CYP3A4: ex=409 nm, em=538 nm wherein excitation wavelength: ex and emission wavelength: em). Thus, each inhibitory efficacy on enzymes CYP2D6 and CYP3A4 was determined. Roflumilast was used for the reference compound in this assay.

For data set [6], the system named is actively sensitized guinea pigs. The data set can be described thus: Inhibition of antigen-induced immediate asthmatic response (airway resistance, Konzett-Rossler). Type of data set: in vivo, Hartley guinea pigs. The settings on record: Cavia porcellus, oral, 60 minutes prior to antigen-challenge, reduction of increase in airway resistance, read-out: Inhibition of Asthmatic response ED50: mg/kg orally. The protocol:
Male Hartley outbred guinea pigs were sensitized by administering intraperitoneally physiological saline (0.5 ml) containing ovalbumin (1 mg, antigen) and 5×10^9 inactivated Bordetella pertussis dead cells (adjuvant). Eleven to thirteen days after the first sensitization, 0.05 ml of an ovalbumin solution (1 mg/ml) (ovalbumin is dissolved in physiological saline) was administered to the lateroabdominal region of each guinea pig intracutaneously. An establishment of sensitization was checked relying on cutaneous reaction. Only guinea pigs wherein significant reddening responses occurred 5 to 10 minutes later were employed in the next measurement test for airway resistance.
The guinea pigs (3 animals per group) actively sensitized in the above step (1) were employed to measure for their airway pressure according to Konzett-Rossler method (Arch. Exp. Path. Pharmakol., 195, 71 (1940)).
Thirteen days after the final sensitization, guinea pigs fasted overnight, and were on the next day anesthetized with a pentobarbital solution (30 mg/1.2 ml/kg, dissolved in physiological saline, intraperitoneal administration). After the guinea pigs were fixed in a supine position, their trachea was incised followed by insertion with one port of a 4-port cannula. Among the remaining 3 ports, 2 ports were connected to an artificial respirator (Model 683, Harvard). The animals were ventilated with 10 ml/kg of air per ventilation at a rate of 60 beats/min via the artificial respirator from the cannula. One port remainder was connected to a respiratory amplifier (AR-601G, Nihon Kohden, Japan) via an airflow resistance tube (TV-241T, Nihon Kohden, Japan) and a differential pressure transducer (TP-602T, Nihon Kohden, Japan) connected with a control box (RY-111S, Nihon Kohden, Japan). From a catheter inserted into a left carotid artery, blood pressures were monitored with a blood pressure measurement unit (AP641G, NEC Corp., Japan) via a blood pressure transducer (TP-300T, Nihon Kohden, Japan), and heart rates were recorded on a thermal recorder (WT-685G, Nihon Kohden, Japan), relying on blood pressure pulse waves after being led to a cardiograph unit (AT601G, Nihon Kohden, Japan).
After airway pressure became stable, an ovalbumin solution (1 mg/ml, dissolved in physiological saline) was administered at a dose of 1 ml/kg via a tube with which the right jugular vein of guinea pigs was cannulated.
Each test compound was suspended in 0.5% CMC-Na solution and administered orally with an oral sound at a dose of 0.03 to 20 mg/2 ml/kg 60 minutes prior to the antigen-challenge. Control groups received only 0.5% CMC-Na solution in an equivalent amount. The pentobarbital-anesthetization and tracheal incision were conducted 30 minutes prior to the antigen-challenge.
Each percent reduction of increase in airway resistance (each test compound-administered group versus control group) was calculated according to the equation given below. ED50 was obtained by Probit method.

Data set [7] deals with T2, CYP3A4 (Homo sapiens, UniProt P08684).
T2 construct: purchased BD Biosciences, NJ, USA; host or cells: CYP3A4-expressing system microsomes
The data set can be described thus: Inhibition of drug-metabolizing enzyme CYP3A4 (CYP3A4/BFC kit). Type of data set: in vitro ADME. Conditions: CYP3A4-expressing microsomes, BFC substrate, 37° C., 30 minutes; read-out: Inhibition of Drug-Metabolizing Enzymes (IC50; μM) CYP3A4. The method, then:
as §1

SMILES strings stand for the structures.

T1 sequence (P10635 whole entry): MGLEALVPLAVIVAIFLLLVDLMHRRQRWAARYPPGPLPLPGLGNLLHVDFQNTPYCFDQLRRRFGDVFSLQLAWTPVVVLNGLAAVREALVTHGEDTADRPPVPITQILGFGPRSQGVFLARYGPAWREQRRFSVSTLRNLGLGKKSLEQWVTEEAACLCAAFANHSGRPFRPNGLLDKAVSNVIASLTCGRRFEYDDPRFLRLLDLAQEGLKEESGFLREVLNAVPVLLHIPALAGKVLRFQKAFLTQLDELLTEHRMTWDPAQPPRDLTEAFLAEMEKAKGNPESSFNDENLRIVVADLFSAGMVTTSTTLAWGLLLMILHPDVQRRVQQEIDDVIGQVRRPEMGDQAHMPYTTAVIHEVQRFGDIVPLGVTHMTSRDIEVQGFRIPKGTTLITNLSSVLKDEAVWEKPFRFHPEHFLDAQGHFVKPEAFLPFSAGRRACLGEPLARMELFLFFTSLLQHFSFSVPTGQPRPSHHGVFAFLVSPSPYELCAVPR
T2 sequence (P08684 whole entry): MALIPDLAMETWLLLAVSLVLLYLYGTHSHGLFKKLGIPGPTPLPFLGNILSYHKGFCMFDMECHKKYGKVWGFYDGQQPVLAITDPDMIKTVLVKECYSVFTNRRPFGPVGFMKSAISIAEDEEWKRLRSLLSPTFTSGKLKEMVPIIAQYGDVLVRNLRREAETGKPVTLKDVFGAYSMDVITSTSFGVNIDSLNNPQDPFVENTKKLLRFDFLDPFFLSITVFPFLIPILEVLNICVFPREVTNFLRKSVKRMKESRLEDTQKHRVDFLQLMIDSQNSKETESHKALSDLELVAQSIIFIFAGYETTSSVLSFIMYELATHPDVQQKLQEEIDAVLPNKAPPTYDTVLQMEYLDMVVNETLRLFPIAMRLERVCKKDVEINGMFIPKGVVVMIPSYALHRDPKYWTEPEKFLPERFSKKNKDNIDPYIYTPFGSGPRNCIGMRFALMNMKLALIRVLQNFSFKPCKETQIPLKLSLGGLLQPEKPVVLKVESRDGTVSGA

As to `O=c1c2c(Cc3ccccc3)n[nH]c2c2cccnc2n1-c1ccccc1` [Example No. 9, 3-benzyl-5-phenyl-1H-pyrazolo[4,3-c][1,8]naphthyridin-4 (5H)-one], the results for the ED50 in data set [1], in data set [3] and in data set [6] were below 0.03 mg/kg, 0.22 mg/kg and 0.16 mg/kg, respectively. The “Abnormality in other parameters” value in data set [2] was “no clear abnormality was observed”. Moreover, the Body weight gain result in data set [2] is reported as “No significant reduction of body weight gains was observed”. Besides, the Mortality entry in data set [2] is on record as “None of the animals were died”. The Occurrence of emesis entry in data set [4] is recorded as “no observation for emetic actions”. Further, the half-maximal inhibitory concentration (IC50) in data set [5] is above 10 µM; in data set [7] it was 8.5 µM.
Regarding `O=c1c2c(Cc3ccc(F)cc3)n[nH]c2c2cccnc2n1-c1ccccc1` [Example No. 33, 3-(4-fluorobenzyl)-5-phenyl-1H-pyrazolo[4,3-c][1,8]naphthyridin-4 (5H)-one], the ED50 in data set [1] was 0.03 mg/kg; in data set [3] it was 0.1 mg/kg; in data set [6], 0.33 mg/kg. In addition, in data set [2], the “Abnormality in other parameters” value is “no clear abnormality was observed”. In data set [2], the Body weight gain entry is given as “No significant reduction of body weight gains was observed”. For the same compound, in data set [2], the Mortality result is “None of the animals were died”. In data set [4], the Occurrence of emesis entry is “no observation for emetic actions”. The IC50 in data set [5] was above 10 µM; in data set [7] it was 6.2 µM.
